According to patent US20260347330A1, “N-METHYL-D-ASPARTATE RECEPTOR (NMDAR) ANTAGONISTS AND USES THEREOF” (Bexson Biomedical, Inc., priority 2022, published 2026):
Read-outs that look alike come from different tables or passages of the source.

Assays:
hSERT = biological target: T1, hSERT (Homo sapiens, UniProt P31645); test: SERT [3H]-citalopram competition radioligand binding, hSERT expressing HEK293 cell membranes
T1 construct: no vendor name is printed for this cell line) RBHSTM-K; host or cells: HEK293
Description: Valiscreen Serotonin Transporter (SERT) (Human) Cell Line (HEK293 host cells, Product No: RBHSTM-K) grown in DMEM/F12 media with 10% FBS, 0.1 mg/ml Geneticin, 1% GlutaMAX, and 1% Penicillin-Streptomycin added were used to prepare SERT membrane fractions. Cells were grown in 150 mm dishes and harvested between 70-90% confluency, passages 5-20. Cells were detached using a buffer containing 1 mM HEPES and 2 mM EDTA (pH 7.4). After detachment, the cells were homogenized using a handheld homogenizer, and the lysate was centrifuged (30 minutes at 30,000×G) at 4 ° C The resulting pellet was resuspended in storage buffer containing 20 mM HEPES, 10 mM MgCl2, 0.1 mM EDTA, and 10% sucrose at pH 7.4. Protein concentration was determined via the Bradford method using Coomassie protein assay reagent (Sigma, USA) with Bovine Serum albumin (Sigma, USA) as standard.
Buffer containing 10 mM HEPES, 120 mM NaCl, and 5 mM KCl (pH 7.4) was added to SERT membranes to dilute to a final protein concentration of 5 µg/mL per well. Additionally, 0.5 nM [3H]-Citalopram (Perkin Elmer NET1039250UC) was added, along with unlabeled competitors at various concentrations or […] citalopram for nonspecific binding controls, bringing the total volume to 1 ml in a 96 well plate. SERT membranes were always added last to each well. The plates were covered from light with aluminum foil and incubated at ambient temperature ([…]) and placed on a mechanical shaker (250RPM) for 2 h. After 2 h, SERT protein was captured via vacuum filtration using a Unifilter-96 Cell Harvester (Perkin Elmer) over presoaked UniFilter-96 GF/C P Microplates (Perkin Elmer) and filters were washed with room temperature 10 mM HEPES, 120 mM NaCl, and 5 mM KCl buffer (pH 7.4) (3×1 mL). The filter plates were dried overnight in a fume hood. The next day, the SERT bound tritium was measured via liquid scintillation counting with MicroScint-O (Perkin Elmer), using a MicroBeta2 Plate Reader with 6-detectors scintillation counter (Perkin Elmer) at 55% efficiency. IC50 value estimates were determined in GraphPad Prism 9.3.1 using non-linear regression (single site fit) with log-concentration plotted against percent specific binding. […] For each experiments compounds were run in duplicate. N=1-3 repeats per compound.

NMDAR [1] = test: NMDA receptor [3H]-MK-801 competition radioligand binding in rat forebrain; details: [3H]-MK-801 1 nM competition, 1 mM glutamate, 0.1 mM glycine, pH 7.4, 2 h ambient, N = 1-4
Description: (§1) Rat forebrains from 7-8 week old Sprague-Dawley rats (BioChemed, USA) were homogenized in a buffer containing 10 mM HEPES and 1 mM EDTA (pH 7.4) using a mechanical homogenizer (Janke-Kunkel Ultra-Turrax T25). A 10 mL volume was used per brain for all steps involving suspension of the brain homogenate tissue. The brain homogenate was then centrifuged (15 minutes at 20,000 RPM and 4 ° C). The supernatant was carefully poured off and the pellet was resuspended in fresh 10 mM HEPES and 1 mM EDTA containing buffer. This process was repeated 5 times. Following the 5th centrifugation, the buffer was replaced with a buffer containing 10 mM HEPES (pH 7.4). The homogenate was then incubated in a water bath at 37 ° C in the dark (covered with foil). Centrifugation was then repeated 3 additional times and after resuspending in the HEPES buffer, the final homogenate was aliquoted and stored at −80 ° C until use. Protein concentration of the homogenate was determined by utilizing the Bradford method using Coomassie protein assay reagent (Sigma, USA) with Bovine Serum albumin (Sigma, USA) as a standard.
At the time of the experiment, the homogenate was diluted to a final concentration of […] in 10 mM HEPES buffer, 1 mM glutamate, and 0.1 mM glycine (pH 7.4) and combined with 1 nM (+)-[3H]-MK-801 (Perkin Elmer NET972250UC), unlabeled competitor compounds at varying concentrations, or 30 uM MK-801 to determine non-specific binding, in a total volume of 1 mL in a 96 well plate. The protein homogenate is always added to the wells last. The plates were covered with aluminum foil, and placed on a mechanical shaker (250 RPM) for 2 h at ambient temperature ([…]). After 2 h, the homogenate was collected by vacuum filtration using a Unifilter-96 Cell Harvester (Perkin Elmer) over presoaked UniFilter-96 GF/C P Microplates (Perkin Elmer) and filters were washed with room temperature 10 mM HEPES buffer (pH 7.4) (3×1 mL). The filter plates were dried overnight in a fume hood. The next day, the bound tritium was measured via liquid scintillation counting with […] MicroScint-O (Perkin Elmer) added per well, using a MicroBeta2 Plate Reader with 6-detectors scintillation counter (Perkin Elmer) at 55% efficiency. IC50 value estimates were determined in GraphPad Prism 9.3.1 using non-linear regression (single site fit) with log-concentration plotted against percent specific binding. Ki values were calculated using the equation of Cheng and Prusoff. […] Experiments were performed in duplicate. N=1-4 per compound.

[2] = biological target: T2, human Dopamine Transporter (Homo sapiens, UniProt Q01959); test: Human dopamine reuptake transporter (DAT) inhibition functional study, ASP+ uptake in CHO cells; assay type: cell-based; details: at 10,000 nM, 10 μM ASP+, 1 h, CHO cells stably expressing human DAT
T2 construct: host or cells: CHO
Description: CHO cells stably expressing human Dopamine Transporter Protein (Valiscreen® Perkin Elmer RBHDATM-K) were cultured in 150 mm Tissue Culture dishes (Cell Treat 229651) at 37 ° C and 5% CO2. Ham's F-12 Nutrient Mix (Gibco, USA) was supplemented with 10% dialyzed FBS (Gibco, USA), 100 µg/ml Geneticin (Gibco, USA), and 100 units/ml Penicillin and Streptomycin (Gibco, USA) as the culture media. Cells were maintained on a consistent splitting and assay schedule and utilized until passage 30 (no change in control experiments were observed up to this point).
Cells were detached from their growth dishes using Trypsin-EDTA (0.25%) (Gibco, USA) at 70-80% confluency. The cells were counted and diluted in culture media to a density of 300,000 cells/mL. 200 µl of this mixture was added to each well of a clear bottom, black-walled 96 well plate (Coming 3603, USA). Plates were incubated in the laminar flow hood for one hour prior to being placed in the cell culture incubator in order to encourage even cell distribution across the entire well surface.
The next day, Krebs-Ringer HEPES (KRH) Buffer pH 7.4 was prepared (10 mM HEPES, 130 mM NaCl, 1.3 mM KCl, 2.2 mM CaCl2, 1.2 mM MgSO4, 1.2 mM KH2PO4) and titrated with 6N NaOH. This buffer was stored in a 4 ° C refrigerator for up to 4 days (after which it was discarded). Additionally, a solution containing KRH buffer and 330 µM Trypan Blue (Sigma T6146-25G), a solution of 20 mM ASP+(MedChem Express, NJ, USA) dissolved in DMSO, were both prepared. The 20 mM DMSO stock of ASP+ was diluted to a working concentration of 40 µM in KRH buffer. DMSO solutions of 40 mM GBR-12935 dihydrochloride (MedChem Express, NJ, USA) and 40 mM test compounds were also prepared. DMSO solutions of test compounds were then diluted to a range of […]-40 μM in KRH Buffer with 1% additional DMSO added to provide consistent DMSO concentration in all samples. […] The final DMSO concentration in each well was 0.3%. […] KRH buffer with DMSO “vehicle control” served as the total fluorescence control to represent the maximum amount of substrate uptake without DAT transporter inhibition.
At the time of assay, cell media was carefully removed from the wells via pipette aspiration. 100 μL of KRH buffer was then added to all wells. Both controls, non-specific and total fluorescence stock solutions were then added to the plate (50 µL of either 400 µM GBR-12935 or KRH DMSO buffer respectively). Additionally, GBR-12935 and test compounds were added to the plate ([…] for each sample). The 10,000 nM concentration of test compound was run in triplicate wells. Next, […] ASP+(final concentration of 10 μM) was added to each well initiating the experiment. Cells were placed in the cell culture incubator for one hour, at which point 20 µL of 330 µM Trypan Blue was added to each well to quench extracellular fluorescence. The cells were then placed in the microplate reader (BioTek Synergy Neo 2), using Gen5 Ver 3.11 software. The reader was preheated to 37 ° C and following a brief orbital shake, intracellular fluorescence was measured using a fluorescence intensity reading. Intracellular ASP+ was excited at 430 nm and emission read at 510 nm via a bottom read using the extended gain settings and high lamp energy setting.

NMDAR [3] = test: Homologous binding experiments with MK-801; details: rat forebrain
Description: as §1, with “The homogenate was then incubated in a water bath at 37 ° C in the dark (covered with foil). Centrifugation was then repeated 3 additional times and after resuspending in the HEPES buffer, the final homogenate was aliquoted and stored at −80 ° C until use.” left out
At the time of the experiment, the homogenate was diluted to a final concentration of […] in 10 mM HEPES buffer, 1 mM glutamate, and 0.1 mM glycine (pH 7.4) and combined with 1 nM (+)-[3H]-MK-801 (Perkin Elmer NET972250UC), unlabeled competitor compounds at varying concentrations, or 30 uM MK-801 to determine non-specific binding, in a total volume of 1 mL in a 96 well plate. […] IC50 value estimates were determined in GraphPad Prism 9.3.1 using non-linear regression (single site fit) with log-concentration plotted against percent specific binding. […]

[4] = 0.5 nM [3H]-citalopram competition, hSERT HEK293 membranes, pH 7.4, 2 h ambient, N = 1, read-out: SERT pKi (converted)

T2 sequence (Q01959 whole entry): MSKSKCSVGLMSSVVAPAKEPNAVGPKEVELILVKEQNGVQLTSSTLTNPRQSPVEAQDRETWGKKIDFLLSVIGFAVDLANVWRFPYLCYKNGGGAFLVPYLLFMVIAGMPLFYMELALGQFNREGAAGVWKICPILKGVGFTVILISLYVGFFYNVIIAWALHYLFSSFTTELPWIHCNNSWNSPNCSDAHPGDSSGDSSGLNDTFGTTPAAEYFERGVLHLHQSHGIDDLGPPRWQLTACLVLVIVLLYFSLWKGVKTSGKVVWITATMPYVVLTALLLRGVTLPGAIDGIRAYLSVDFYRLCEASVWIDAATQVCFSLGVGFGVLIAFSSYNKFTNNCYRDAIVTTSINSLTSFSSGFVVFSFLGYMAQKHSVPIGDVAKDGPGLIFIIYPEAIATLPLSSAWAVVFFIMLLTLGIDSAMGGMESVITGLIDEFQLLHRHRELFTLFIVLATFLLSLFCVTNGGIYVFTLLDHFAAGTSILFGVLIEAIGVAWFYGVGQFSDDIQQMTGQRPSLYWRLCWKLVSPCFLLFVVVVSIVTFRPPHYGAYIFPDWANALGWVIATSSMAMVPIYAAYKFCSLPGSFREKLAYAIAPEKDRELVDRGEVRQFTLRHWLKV
T1 sequence (P31645 whole entry): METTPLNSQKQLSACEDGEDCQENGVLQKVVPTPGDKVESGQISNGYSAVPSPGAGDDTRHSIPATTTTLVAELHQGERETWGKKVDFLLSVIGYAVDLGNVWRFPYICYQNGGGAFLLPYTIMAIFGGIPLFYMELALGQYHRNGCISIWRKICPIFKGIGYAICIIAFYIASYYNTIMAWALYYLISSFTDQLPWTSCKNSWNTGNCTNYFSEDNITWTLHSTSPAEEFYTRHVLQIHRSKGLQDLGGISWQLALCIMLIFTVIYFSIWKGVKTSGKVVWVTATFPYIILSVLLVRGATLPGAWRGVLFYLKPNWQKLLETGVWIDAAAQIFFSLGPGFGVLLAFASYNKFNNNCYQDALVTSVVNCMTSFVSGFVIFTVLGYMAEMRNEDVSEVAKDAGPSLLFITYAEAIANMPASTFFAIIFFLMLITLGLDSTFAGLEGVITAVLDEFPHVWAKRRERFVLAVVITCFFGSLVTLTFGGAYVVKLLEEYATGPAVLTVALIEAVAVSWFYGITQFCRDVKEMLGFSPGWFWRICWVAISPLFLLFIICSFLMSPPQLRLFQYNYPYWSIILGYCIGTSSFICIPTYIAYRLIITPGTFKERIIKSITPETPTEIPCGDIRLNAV

Structure (SMILES)	IC50 (hSERT) [nM]	NMDAR binding affinity pKi (mean ± SEM) (NMDAR [1])	inhibition at 10 µM [2] [%]	Ki (hSERT) [nM]	Ki (hSERT; [4]) [nM]	Kd (NMDAR [3]) [nM]
NC(c1ccccc1)(C1CCCC1)C1CC1 (stereo not shown) [Compound 5, Cyclopentyl(cyclopropyl)(phenyl)methanamine]	> 10000	6.23 ± 0.046	1.3			
C=CCC(N)(c1ccccc1)C1CCCC1 (stereo not shown) [Compound 6, 1-cyclopentyl-1-phenylbut-3-en-1-amine]		5.89 ± 0.072	23.1	3160		
NC(CC1CCC1)(c1ccccc1)C1CCCC1 (stereo not shown) [Compound 9, 2-cyclobutyl-1-cyclopentyl-1-phenylethan-1-amine]	> 10000	5.80 ± 0.095	-4			
CC(N)(c1ccccc1)C1CCCCC1 (stereo not shown) [Compound 11, 1-cyclohexyl-1-phenylethan-1-amine]	> 10000	6.09 ± 0.120	11.7			
CNC(C)(c1ccccc1)C1CCCC1 (stereo not shown) [Compound 15, 1-cyclopentyl-N-methyl-1-phenylethan-1-amine]		6.56 ± 0.064	18.2	501		
CCNC(C)(c1ccccc1)C1CCCC1 (stereo not shown) [Compound 16, 1-cyclopentyl-N-ethyl-1-phenylethan-1-amine]		6.93 ± 0.073	16		1120	
CC(C)NC(C)(c1ccccc1)C1CCCC1 (stereo not shown) [Compound 19, N-(1-cyclopentyl-1-phenylethyl)propan-2-amine]		7.34 ± 0.041	39.2		151	
CCC(C)NC(C)(c1ccccc1)C1CCCC1 (stereo not shown) [Compound 20, N-(1-cyclopentyl-1-phenylethyl)butan-2-amine]		7.35 ± 0.075	56.7	2450		
CC(c1ccccc1)(C1CCCCC1)N1CCCCC1 (stereo not shown) [Compound 23, 1-(1-cyclohexyl-1-phenylethyl)piperidine]		5.52 ± .118	71.6		2630	
NC(c1ccccc1Cl)C1CCCC1 (stereo not shown) [Compound 29, (2-chlorophenyl)(cyclopentyl)methanamine]	> 10000	5.47 ± 0.030	10.3			
C[C@]12N[C@H](Cc3ccccc31)c1ccccc12 [MK-801]						1.67
